“And” between values parts separate entries of the source, which are not always exact repeats. Equal values may be shown once.
Experiment: xn = mol fraction of the nth substance listed
Conditions: 101 kPa, Liquid, Pycnometric method

NC=O [formamide] + CCCO
mass density
Conditions | 293.15 K | 298.15 K | 303.15 K | 308.15 K | 313.15 K | 318.15 K
x1 = 0.0557 | 814.02 kg/m3 | 810.06 kg/m3 | 806.09 kg/m3 | 802.16 kg/m3 | 798.22 kg/m3 | 794.25 kg/m3
x1 = 0.1172 | 826.05 kg/m3 | 822.13 kg/m3 | 818.2 kg/m3 | 814.24 kg/m3 | 810.33 kg/m3 | 806.4 kg/m3
x1 = 0.1854 | 840.26 kg/m3 | 836.35 kg/m3 | 832.44 kg/m3 | 828.51 kg/m3 | 824.6 kg/m3 | 820.65 kg/m3
x1 = 0.2615 | 857.42 kg/m3 | 853.48 kg/m3 | 849.54 kg/m3 | 845.65 kg/m3 | 841.72 kg/m3 | 837.81 kg/m3
x1 = 0.3469 | 878.23 kg/m3 | 874.3 kg/m3 | 870.42 kg/m3 | 866.5 kg/m3 | 862.58 kg/m3 | 858.68 kg/m3
x1 = 0.3912 | 889.89 kg/m3 | 885.98 kg/m3 | 882.06 kg/m3 | 878.16 kg/m3 | 874.26 kg/m3 | 870.36 kg/m3
x1 = 0.4434 | 904.36 kg/m3 | 900.47 kg/m3 | 896.54 kg/m3 | 892.62 kg/m3 | 888.72 kg/m3 | 884.8 kg/m3
x1 = 0.4986 | 920.67 kg/m3 | 916.75 kg/m3 | 912.83 kg/m3 | 908.96 kg/m3 | 905.05 kg/m3 | 901.16 kg/m3
x1 = 0.5534 | 937.91 kg/m3 | 934.03 kg/m3 | 930.12 kg/m3 | 926.2 kg/m3 | 922.32 kg/m3 | 918.42 kg/m3
x1 = 0.6216 | 961.03 kg/m3 | 957.12 kg/m3 | 953.23 kg/m3 | 949.33 kg/m3 | 945.41 kg/m3 | 941.54 kg/m3
x1 = 0.68 | 982.32 kg/m3 | 978.44 kg/m3 | 974.57 kg/m3 | 970.66 kg/m3 | 966.78 kg/m3 | 962.88 kg/m3
x1 = 0.7535 | 1011.59 kg/m3 | 1007.72 kg/m3 | 1003.81 kg/m3 | 999.91 kg/m3 | 996.03 kg/m3 | 992.15 kg/m3
x1 = 0.827 | 1043.7 kg/m3 | 1039.83 kg/m3 | 1035.95 kg/m3 | 1032.06 kg/m3 | 1028.21 kg/m3 | 1024.36 kg/m3
x1 = 0.8832 | 1070.44 kg/m3 | 1066.54 kg/m3 | 1062.68 kg/m3 | 1058.82 kg/m3 | 1054.92 kg/m3 | 1051.03 kg/m3
x1 = 0.9328 | 1095.56 kg/m3 | 1091.65 kg/m3 | 1087.74 kg/m3 | 1083.81 kg/m3 | 1079.91 kg/m3 | 1075.97 kg/m3
x1 = 1 | – | 1133 kg/m3 and 1129 kg/m3 | 1125 kg/m3 | 1121 kg/m3 | 1117 kg/m3 | 1113 kg/m3

CCCO [propan-1-ol] + NC=O
x2 = 0
Conditions | mass density [kg/m3]
293.15 K | 803.71
298.15 K | 799.74
303.15 K | 795.77
308.15 K | 791.8
313.15 K | 787.83
318.15 K | 783.86

NC=O [formamide] + CCO
mass density [kg/m3]
Conditions | 293.15 K | 298.15 K | 303.15 K | 308.15 K | 313.15 K | 318.15 K
x1 = 0.0698 | 807.47 | 803.3 | 799.14 | 794.94 | 790.75 | 786.59
x1 = 0.1412 | 826.72 | 822.6 | 818.49 | 814.41 | 810.28 | 806.17
x1 = 0.2032 | 844.13 | 840.06 | 835.99 | 831.94 | 827.87 | 823.84
x1 = 0.268 | 862.91 | 858.91 | 854.91 | 850.86 | 846.85 | 842.82
x1 = 0.3234 | 879.65 | 875.69 | 871.68 | 867.71 | 863.74 | 859.75
x1 = 0.3874 | 899.52 | 895.58 | 891.65 | 887.7 | 883.75 | 879.8
x1 = 0.4365 | 915.29 | 911.35 | 907.45 | 903.54 | 899.61 | 895.7
x1 = 0.4962 | 935.06 | 931.19 | 927.32 | 923.4 | 919.52 | 915.62
x1 = 0.5423 | 950.83 | 946.93 | 943.06 | 939.2 | 935.3 | 931.42
x1 = 0.5958 | 969.63 | 965.8 | 961.95 | 958.11 | 954.29 | 950.42
x1 = 0.6456 | 987.65 | 983.82 | 979.98 | 976.18 | 972.35 | 968.54
x1 = 0.708 | 1010.93 | 1007.05 | 1003.21 | 999.36 | 995.49 | 991.62
x1 = 0.7748 | 1036.9 | 1033.01 | 1029.13 | 1025.26 | 1021.35 | 1017.44
x1 = 0.8532 | 1068.57 | 1064.68 | 1060.75 | 1056.82 | 1052.93 | 1049.03
x1 = 0.9282 | 1100.66 | 1096.71 | 1092.76 | 1088.83 | 1084.87 | 1080.95
x1 = 1 | 1133 | 1129 | 1125 | 1121 | 1117 | 1113

CCO [ethanol] + NC=O
x2 = 0
Conditions | mass density [kg/m3]
293.15 K | 789.46
298.15 K | 785.2
303.15 K | 780.75
308.15 K | 776.42
313.15 K | 771.81
318.15 K | 767.38

Source: the NIST ThermoML archive (doi:10.1016/j.jct.2006.07.021)
